pIC50: −log10 of the molar value. Where a name gives a salt, the structure may show the parent alone.
Key:
[1] = target: T1, transfected human CB1 receptors (Homo sapiens, UniProt P21554); assay: in-vitro determination of affinity to CB1-Receptor (radioligand binding); settings: transfected human CB1 receptors of Receptor Biology, Inc.; radioligand [^3H]-CP55940; read-out: CB1-Receptor Radiologand :[^3H]-CP55940 IC50
T1 construct: purchased Receptor Biology, Inc
Protocol: The in-vitro determination of the affinity of the inventive quaternary ammonium salts of substituted pyrazoline compounds to CB1/CB2-Rezeptors is carried out as described in the publication of Ruth A. Ross, Heather C. Brockie et al., "Agonist-inverse agonist characterization at CB1 and CB2 cannabinoid receptors of L-759633, L759656 and AM630", British Journal of Pharmacology, 126, 665-672, (1999), whereby the transfected human CB1 and CB2 receptors of Receptor Biology, Inc. are used. The radioligand used for both receptors is [^3H]-CP55940. The respective parts of the description are hereby incorporated by reference and forms part of the present disclosure.

cannabinoid receptors = assay: Mouse tetrad model, antagonistic activity against Win 55212-2; format: in vivo, Male NMRI mice; settings: against Win 55212-2 (1.25 mg/kg intravenous), substance injected 5 minutes before the agonist, mice
Excerpt: Substances with affinity for cannabinoid receptors are known to produce a wide range of pharmacological effects. It is also known that intravenous administration of a substance with affinity for cannabinoid receptors in mice produces analgesia , hypothermia, sedation and catalepsy. Individually, none of these effects can be considered as proof that a tested substance has affinity for cannabinoid-receptors, since all of these effects are common for various classes of centrally active agents. However, substances, which show all of these effects, i.e. substances that are active in this so-called tetrad model are considered to have affinity for the cannabinoid receptors. It has further been shown that cannabinoid receptor antagonists are higly effective in blocking the effects of a cannabinoid agonist in the mouse tetrad model.
The tetrad model is described, for example, in the publication of A. C. Howlett et al, International Union of Pharmacology XXVII. Classification of Cannabinoid Receptors, Pharmacol Rev 54, 161-202, 2002 and David R. Compton et al., "In-vivo Characterization of a Specific Cannabinoid Receptor Antagonist (SR141716A) Inhibition of Tetrahydrocannbinol- induced Responses and Apparent Agonist Activity", J. Pharmacol. Exp. Ther. 277 , 2, 586-594, 1996. The corresponding parts of the description are hereby incorporated by reference. […]
Before testing in the behavioral procedures given below, mice are acclimatized to the experimental setting. Pre-Treatment control values are determined for analgesia hot plate latency (in seconds), rectal temperature, sedation and catalepsy.
In order to determine the agonistic activty of the substance to be tested, the mice are injected intravenously with the substance to be tested or the vehicle alone. 15 minutes after injection, latency in hot plate analgesia is measured. Rectal temperature, sedation and catalepsy are measured 20 minutes after injection.
In order to determine the antagonistic activity the identical procedure is used as for the determination of the agonistic effects, but with the difference that the substance to be evaluated for its antagonistic activity is injectected 5 minutes before the intravenous injection of 1.25 mg/kg Win-55,212 a known cannabinoid-receptor agonist.
The hot plate analgesia is determined according to the method described in Woolfe D. et al. "The evaluation of analgesic action of pethidine hydrochloride (Demerol)", J. Pharmacol. Exp. Ther. 80, 300-307,1944. […]
The mice are placed on a hot plate (Harvard Analgesimeter) at 55 ± 0.5 °C until they show a painful sensation by licking their paws or jumping and the time for these sensations to occur is recorded. This reading is considered the basal value (B). […]

T1 sequence (P21554 whole entry): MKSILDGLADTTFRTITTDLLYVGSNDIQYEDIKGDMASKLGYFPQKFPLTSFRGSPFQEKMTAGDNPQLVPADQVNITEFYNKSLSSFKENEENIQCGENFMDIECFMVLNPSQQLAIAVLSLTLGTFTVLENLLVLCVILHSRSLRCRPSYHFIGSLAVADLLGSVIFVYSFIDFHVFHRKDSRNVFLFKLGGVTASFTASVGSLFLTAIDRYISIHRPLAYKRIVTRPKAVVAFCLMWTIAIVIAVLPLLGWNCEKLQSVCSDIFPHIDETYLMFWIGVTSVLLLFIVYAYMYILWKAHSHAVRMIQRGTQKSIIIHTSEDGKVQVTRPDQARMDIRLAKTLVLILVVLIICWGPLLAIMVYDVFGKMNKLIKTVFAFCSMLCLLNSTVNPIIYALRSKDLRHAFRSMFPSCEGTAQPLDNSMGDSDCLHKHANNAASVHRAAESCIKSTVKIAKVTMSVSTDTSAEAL

| SMILES | pIC50 [1] | Antagonistic Effect in (%) (cannabinoid receptors; 1.25 mg/kg) | Antagonistic Effect in (%) (cannabinoid receptors) |
| --- | --- | --- | --- |
| O=C(NN1CC2CCCC2C1)C1=NN(c2ccc(Cl)cc2Cl)C(c2ccc(Cl)cc2)C1 (stereo not shown) [1 (HCl)] | 7.15 | 117 ± 3 | – |
| O=C(NN1CC2CCCC2C1)C1=NN(c2ccc(Cl)cc2Cl)C(c2ccc(Cl)cc2)C1 (stereo not shown) [Example 1, 5-(4-chlorophenyl)-1-(2,4-dichlorophenyl)-N-(hexahydrocyclopenta[c]pyrrol-2(1H)-yl)-4,5-dihydro-1H-pyrazole-3-carboxamide] | 7.90 | 122 ± 4 | – |
| O=C(NN1CC2CCCC2C1)C1=NN(c2ccc(Cl)cc2Cl)[C@@H](c2ccc(Cl)cc2)C1 (stereo partly drawn) [Example 2, (R)-5-(4-chlorophenyl)-1-(2,4-dichlorophenyl)-N-(hexahydrocyclopenta[c]pyrrol-2(1H)-yl)-4,5-dihydro-1H-pyrazole-3-carboxamide] | 7.80 | – | 125.9 |
| O=C(NN1CC2CCCC2C1)C1=NN(c2ccc(Cl)cc2Cl)C(c2ccc(Br)cc2)C1 (stereo not shown) [Example 4, 5-(4-bromophenyl)-1-(2,4-dichlorophenyl)-N-(hexahydrocyclopenta[c]pyrrol-2(1H)-yl)-4,5-dihydro-1H-pyrazole-3-carboxamide] | – | – | 121 ± 4 |
